US7456220B2, “Immunodulatory compositions and methods of use thereof” (priority 1999, dated 2008)

System: gentamicin resistant Escherichia coli
Experiment: Rat sepsis model, mortality vs. saline control (Example 15)
Format: in vivo, Wistar rats
Settings: Gentamicin 2 mg, gel 2 ml I.M., 24 hours before challenge, Group D mixture, timing not given
Description: The model system utilizes Wistar rats surgically implanted with an inoculum of intestinal contents from other rats. The inoculum is prepared in a manner which simulates the microbiologic parameters of the human colon. This is accomplished by placing rats on a diet of lean ground beef for two weeks, and then harvesting, homogenizing and freezing aliquots of prepared intestinal contents for subsequent use. The clinical end points for evaluation in this model are mortality, while microbiologic end points include blood and peritoneal cultures. The general experimental design and methods are as follows.
Male, Wistar, virus antibody free (VAF) rats (Charles River Laboratories, Wilmington, Mass.), weighing 175-200 grams, are utilized for all experiments. All animals are housed, five per cage, within a VAF facility, and given food and water ad libitum, except for those animals used for preparation of the meat-fed cecal inoculum (see below). Animal experiments are carried out according to the guidelines of the Harvard Medical Area Standing Committee on Animals, in facilities accredited by the American Association for the Accreditation of Laboratory Animal Care.
The innoculum for this study is prepared as described in A. Onderdonk et al., Experimental intra-abdominal abscesses in rats; quantitative bacteriology of infected animals. Infection and Immunity, 10:1256-9 (1974); and A. Onderdonk et al., Experimental intra-abdominal abscesses in rats: development of animal model. Infection and Immunity, 10:1256-1259 (1974). Briefly, cecal contents from meat-fed rats are combined with peptone-yeast-glucose broth to form a slurry. This slurry is filtered through gauze to remove large particulate material, aliquoted and frozen at −80° C. until used. Preliminary testing of this inoculum is performed to determine the proper dilution of the inoculum to yield a mortality of 60%-70% in an untreated group.
Animals are anesthetized with Nembutal (50 mg/Kg), and prepared for surgical implantation of the inoculum by shaving the abdomen and applying an iodine solution. A 3-4 cm midline incision is made through the skin and anterior abdominal wall, and a gelatin capsule containing 0.5 mL of the inoculum is inserted into the pelvic region. The incision is closed with one 3-0 suture, and the animals are observed four times per day for the first 48 hours, and every eight hours thereafter. Visibly moribund animals are humanely sacrificed with CO2.
Groups of twenty animals each are implanted with the inoculum described above. For each experiment, a control group of sham-treated animals is employed. For experiments in which quantitative blood and peritoneal cultures are obtained, sufficient additional animals are implanted to allow for such cultures, but mortality in these groups is not included in the clinical outcome calculations, due to the additional manipulation of the animals. Surviving animals from each group are sacrificed after seven days.
A comparison of groups with regard to mortality is made by chi-square analysis as supplied on commercially available statistical software (Instat, GraphPad Software, San Diego, Calif.). A comparison group mean bacterial count is made using Student's T test.
Animals were divided into Groups A, B, C and D, with each Group containing 15 animals. All groups were challenged with 2.629 ml gentamicin resistant Escherichia coli, 0.32 ml Dextran Sulfate, and 29.051 ml Peptone Yeast Glucose. Group A was treated 2 hours after challenge, while Groups B and C were treated 24 hours before challenge. Group A was treated with 2 ml saline I.M.; Group B was treated with 2 mg Gentamicin; Group C was treated with 2 ml HA/CMC/EDC gel I.M.; and Group D was treated with a mixture of Gentamicin and HA/CMC/EDC gel.
The animals were held for 48 hours, and assessed for mortality vs. the saline control.

Q: Which results are given for Gentamicin?
A: % mortality (24 hr): 23.1%; mortalities (M) (24 hr): 3; surviving animals (A) (24 hr): 10; % mortality (48 hr): 38.5%; mortalities (M) (48 hr): 2; surviving animals (A) (48 hr): 8; % mortality (Total): 38.5%; mortalities (M) (Total): 5; surviving animals (A) (Total): 8
